# Assay results from PMC4019635 (PLoS ONE, 2014).
# How the values were obtained:
# RDLbd = biological target: T1, RDLbd (Drosophila melanogaster, UniProt P25123); experiment: cell-based
# T1 sequence (P25123 45-606): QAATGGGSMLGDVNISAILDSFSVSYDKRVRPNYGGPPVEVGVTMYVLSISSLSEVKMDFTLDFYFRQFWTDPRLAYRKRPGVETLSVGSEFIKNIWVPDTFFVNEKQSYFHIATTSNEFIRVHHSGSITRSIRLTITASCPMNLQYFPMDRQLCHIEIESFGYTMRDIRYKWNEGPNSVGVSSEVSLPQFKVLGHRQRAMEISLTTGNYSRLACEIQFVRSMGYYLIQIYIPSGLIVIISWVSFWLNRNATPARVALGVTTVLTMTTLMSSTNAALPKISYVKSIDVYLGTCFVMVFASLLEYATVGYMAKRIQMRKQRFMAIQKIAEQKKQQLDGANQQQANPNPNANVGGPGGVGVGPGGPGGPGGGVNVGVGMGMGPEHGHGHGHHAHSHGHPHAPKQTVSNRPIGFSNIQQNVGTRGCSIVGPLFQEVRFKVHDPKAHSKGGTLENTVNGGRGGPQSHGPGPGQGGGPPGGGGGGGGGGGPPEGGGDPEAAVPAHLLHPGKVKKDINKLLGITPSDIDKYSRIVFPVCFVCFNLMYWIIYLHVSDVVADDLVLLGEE
# RDLbdI/VA^301S = experiment: cell-based; set-up: species or system Drosophila melanogaster; settings: compared to wild-type / RDLbdI/V
# [1] = system: Drosophila carrying the RDLA^301S mutation; set-up: method as in PMID 11095718; settings: cited from earlier work
# [2] = system: Drosophila carrying the P299S mutation in GluCl; set-up: method as in PMID 11095718; settings: cited from earlier work
# [3] = system: human glycine α1 receptor A288G; set-up: method as in PMID 20308070; settings: A288G mutation; cited from earlier work
# RDLbdI/V = RDLbdI/V (Drosophila melanogaster, UniProt P25123, I283V); experiment: cell-based; settings: for concentration at which responses failed to saturate: highest concentration usable, TACA, muscimol, β-alanine insoluble at higher concentrations
# Chain of RDLbdI/V (P25123 45-606 I283V): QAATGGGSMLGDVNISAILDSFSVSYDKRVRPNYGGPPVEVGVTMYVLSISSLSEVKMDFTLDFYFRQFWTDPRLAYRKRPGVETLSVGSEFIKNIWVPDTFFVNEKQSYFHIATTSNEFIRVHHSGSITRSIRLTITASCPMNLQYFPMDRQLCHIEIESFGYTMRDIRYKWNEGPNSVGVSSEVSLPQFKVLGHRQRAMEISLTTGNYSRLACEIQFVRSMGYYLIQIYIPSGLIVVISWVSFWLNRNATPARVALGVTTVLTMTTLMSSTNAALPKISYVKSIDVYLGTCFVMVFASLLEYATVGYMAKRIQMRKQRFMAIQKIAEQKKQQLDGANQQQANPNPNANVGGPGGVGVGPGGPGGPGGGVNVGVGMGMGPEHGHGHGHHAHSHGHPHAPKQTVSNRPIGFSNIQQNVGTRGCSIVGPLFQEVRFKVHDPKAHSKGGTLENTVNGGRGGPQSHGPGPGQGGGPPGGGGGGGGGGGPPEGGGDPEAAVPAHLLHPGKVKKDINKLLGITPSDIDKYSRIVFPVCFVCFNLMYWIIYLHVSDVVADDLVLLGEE
# RDL A^301S mutation = system: RDL A^301S mutation; set-up: method as in PMID 2124226; settings: cited from earlier work
SMILES,IC50 (RDLbd) [nM],resistance caused by the A^301S mutation (RDLbdI/VA^301S) [fold],concentration at which responses failed to saturate (RDLbdI/V) [mM],other results
"CC[C@H](C)[C@H]1O[C@]2(CC[C@@H]1C)C[C@@H]1C[C@@H](C/C=C(\C)[C@@H](O[C@H]3C[C@H](OC)[C@@H](O[C@H]4C[C@H](OC)[C@@H](O)[C@H](C)O4)[C@H](C)O3)[C@@H](C)/C=C/C=C3\CO[C@@H]4[C@H](O)C(C)=C[C@@H](C(=O)O1)[C@]34O)O2 [IVM, ivermectin]",525,2,,resistance compared to the wild-type [1]: 3.3 fold; sensitivity change [2]: ten-fold less sensitive; increase in sensitivity [3]: ~100 fold
"N#Cc1nn(-c2c(Cl)cc(C(F)(F)F)cc2Cl)c(NCc2cnccn2)c1SCF [Pyrafluprole, pyrafluprole]",631,2,,
"NC/C=C/C(=O)O [TACA, trans-4-aminocrotonic acid]",,,6,
ClC1=C(Cl)[C@]2(Cl)[C@@H]3[C@@H]4C[C@@H]([C@H]5O[C@@H]45)[C@@H]3[C@@]1(Cl)C2(Cl)Cl [dieldrin],,,,resistance (RDL A^301S mutation): > 4000 fold
N#Cc1nn(-c2c(Cl)cc(C(F)(F)F)cc2Cl)c(N)c1[S+]([O-])C(F)(F)F (stereo not drawn) [fipronil],331,3,,"current induced when applied alone (RDLbdI/V; 1 nM−100 µM, no GABA, receptor variant not stated, data not shown): no discernible current"
O=C(O)C1=CCNCC1 [isoguvacine],,,3,
NCc1cc(=O)[nH]o1 [muscimol],,,3,
NCCC(=O)O [β-alanine],,,10,
